Earlier results as cited in US20240293350A1, “DEVELOPMENT OF AN INNOVATIVE INHALATION FORMULATION OF NAFAMOSTAT MESYLATE FOR THE MANAGEMENT OF COVID-19” (EGE UNIVERSITESI, priority 2020, published 2024).
Where a name gives a salt, the structure may show the parent alone.

Experiments:
coronavirus = settings: primary human mucociliary airway epithelial cells
NL63 virus = settings: after infection with NL63 virus, gut-on-a-chip model; compared with Remdesivir
SARS-COV-2 [1] = settings: administered after infection with SARS-COV-2; compared with Remdesivir
SARS-COV-2 [2] = settings: Simian Vero E6 cells infected with SARS-COV-2, cell culture

Compound: N=C(N)c1ccc2cc(OC(=O)c3ccc(N=C(N)N)cc3)ccc2c1 [NM, nafamostat mesylate]
- antiviral activity (coronavirus): demonstrated antiviral activity
- effectiveness after infection (NL63 virus): much more effective after infection with the NL63 virus than Remdesivir
- viral load (SARS-COV-2 [1]): decreased the viral load more than Remdesivir
- prevention of infection of cells (SARS-COV-2 [2]): prevent cells from being infected with the virus
